We go through five molecules from patent US20020106375A1, “Non-cytolytic soluble factor from activated-expanded CD4 cells” (priority 2000, published 2002).

Counter-ions that a name gives are not always drawn. Like-named read-outs stand apart in the source and are kept apart here.

One may read the inhibition as the drop in the measured response relative to a control, in per cent.

For one test, the system named is LS513 cells. Nature of the test: Proliferation assay with median effect analysis, LS513. Format: cell-based. As to conditions: Homo sapiens, LS-513, topotecan 1 μg/ml, supernatant 25% v/v, antibodies 10 μg/ml, read-out: Fractional Inhibition. On the procedure: (§1) MTS was added for the final 5 hours of culture as recommended by the manufacturer (CelTiter, 96 AQueous Non-Radioactive Cell Proliferation Assay, Promega, Madison, Wis.), and the absorbence was read in a DigiScan reader (ASYS Hitech, Austria) at A492 nm. Samples were evaluated in triplicate. Tumor cells cultured in maintenance media with no addition and the maintenance media alone were used as controls. Fractional inhibition was determined by the following formula: [formula]
According to this method, “synergy” is indicated by a Cl of less than 1, “addition” by a Cl equal to 1, and “antagonism” by a Cl greater than 1. A Cl of less than 0.3 is considered to represent “strong synergism”, and a Cl greater than 3.3 is considered to represent “strong antagonism”.

In a further test the test system is SKBR3 cells. Put plainly: Tumor proliferation assay (MTS), SKBR3. Format: cell-based, human. As to conditions: tamoxifen 10 μg/ml; for inhibition at 10 µg/mL: Homo sapiens, SKBR3, Factor C 5% v/v, read-out: Fractional Inhibition. How it is done: MTS was added for the final 5 hours of culture as recommended by the manufacturer (CeiTiter 96 AQueous, Non-Radioactive Cell Proliferation Assay; Promega, Madison, Wis.), and the absorbence was read in a DigiScan reader (ASYS Hitech, Austria) at A492 nm. Samples were evaluated in triplicate. Tumor cells cultured in maintenance media with no addition and the maintenance media alone were used as controls. Fractional inhibition was determined by the formula set forth above.
The combined effects of the drugs and supernatants were analyzed by the median effect method of Chou and Talalay using CalcuSyn software (see above). […] According to this method, “synergy” is indicated by a Cl of less than 1, “addition” by a Cl equal to 1, and “antagonism” by a Cl greater than 1. A Cl of less than 0.3 is considered to represent “strong synergism”, and a Cl greater than 3.3 is considered to represent “strong antagonism”.

Test [1] deals with Fas (CD95) of SKBR3 cells. Nature of the test: Fas (CD95) expression by flow cytometry, SKBR3. The format is cell-based, human. Conditions: tamoxifen 10 μg/ml. How it is done: Flow cytometry was used to assess Fas expression and cell cycle. Cells were reacted sequentially with mAb to Fas (CD95) and then with a fluorescenated goat anti-mouse antibody, according to the recommendations of the manufacturer. Percent fluorescent cells and fluorescence intensity was determined using an Epics Elite cytofluorograph (Coulter Corp.). All samples were compared to their isotype-matched controls. Analysis of cell cycle was performed using propidium iodide on a Coulter EPICS Elite flow cytometer equipped with a 488 nm, 15 mW, air-cooled Argon laser. […] Optical laser alignment calibration of the flow cytometer was performed using Coulter's DNA-Check EPICS alignment fluorosphere beads with coefficient of variations routinely less than 2%. PI fluorescent light emission was collected through a 610 nm, long-pass transmission filter. PI signal was measured in linear mode and extended analysis of DNA content was performed using ModFit LT program, as described above. Data are presented as the percentage of cells in G1-G0, S, and G2-M.

For test [2], the system named is caspase-3. Put plainly: Caspase-3 activity, SKBR3. Format: cell-based, human. Conditions: Factor C 5% v/v, tamoxifen 10 μg/ml. How it is done: (§2) Caspase-3 and caspase-8 activities were determined using a calorimetric assay kit (R&D Systems, Inc., Minneapolis, Minn.). Assays were conducted according to the instructions of the manufacturer. Protein kinase C, Prote3in kinase c alpha and delta levels were determined by immunoprecipitation and Western blotting, as previously described. Hofmeister, et al., “Clustered CD20 induced apoptosis: src-family kinase, the proximal regulator of tyrosine phosphorylation, calcium influx, and caspase 3-dependent apoptosis”, Blood Cells Mol Dis, 26:133-43, 2000.

The test system of test [3] is caspase-8. Put plainly: Caspase-8 activity, SKBR3. Conditions: Factor C 5% v/v, tamoxifen 10 μg/ml. The format is cell-based, human. How it is done:
as §2

Test [4] deals with FasR (CD95) of LS513 cells. Put plainly: FasR (CD95) expression by flow cytometry, LS513. Format: cell-based, human. On the procedure: (§3) Flow cytometry was used to assess FasR expression and cell cycle. Analysis of cell cycle was performed using propidium iodide on a Coulter EPICS Elite flow cytometer (Coulter Corporation) equipped with a 488 nm, 15 mW, air-cooled Argon laser. […] Optical laser alignment calibration of the flow cytometer was performed using Coulter's DNA-Check EPICS alignment fluorosphere beads with coefficient of variations routinely less than 2%. PI fluorescent light emission was collected through a 610 nm, long-pass transmission filter. PI signal was measured in linear mode and extended analysis of DNA content was performed using the ModFit LT program (Verity Software House, Inc., Topsham, Me.). Data are presented as the percentage of cells in G1-G0, S and G2-M.
Background: In flow cytometry, cells or beads pass a laser one at a time.

Test [5] deals with FasR (CD95) of SW480 cells. Nature of the test: FasR (CD95) expression by flow cytometry, SW480. Format: cell-based, human. On the procedure:
as §3

Test [6] concerns caspase-3. Put plainly: Caspase-3 activity, colorimetric, colorectal cancer cells. Format: cell-based, human. How it is done: (§4) Caspase-3 and caspase-8 activities were determined using a calorimetric assay kit (R&D Systems, Inc., Minneapolis, Minn.). Assays were conducted according to the instructions of the manufacturer.
For test [7], the system named is caspase-8. Nature of the test: Caspase-8 activity, colorimetric, colorectal cancer cells. Format: cell-based, human. On the procedure: as §4
Test [8] concerns the target T1, topoisomerase I-DNA complexes (Homo sapiens, UniProt P11387).
T1 construct: endogenous in cells; host or cells: LS513
T1 sequence (P11387 1-765): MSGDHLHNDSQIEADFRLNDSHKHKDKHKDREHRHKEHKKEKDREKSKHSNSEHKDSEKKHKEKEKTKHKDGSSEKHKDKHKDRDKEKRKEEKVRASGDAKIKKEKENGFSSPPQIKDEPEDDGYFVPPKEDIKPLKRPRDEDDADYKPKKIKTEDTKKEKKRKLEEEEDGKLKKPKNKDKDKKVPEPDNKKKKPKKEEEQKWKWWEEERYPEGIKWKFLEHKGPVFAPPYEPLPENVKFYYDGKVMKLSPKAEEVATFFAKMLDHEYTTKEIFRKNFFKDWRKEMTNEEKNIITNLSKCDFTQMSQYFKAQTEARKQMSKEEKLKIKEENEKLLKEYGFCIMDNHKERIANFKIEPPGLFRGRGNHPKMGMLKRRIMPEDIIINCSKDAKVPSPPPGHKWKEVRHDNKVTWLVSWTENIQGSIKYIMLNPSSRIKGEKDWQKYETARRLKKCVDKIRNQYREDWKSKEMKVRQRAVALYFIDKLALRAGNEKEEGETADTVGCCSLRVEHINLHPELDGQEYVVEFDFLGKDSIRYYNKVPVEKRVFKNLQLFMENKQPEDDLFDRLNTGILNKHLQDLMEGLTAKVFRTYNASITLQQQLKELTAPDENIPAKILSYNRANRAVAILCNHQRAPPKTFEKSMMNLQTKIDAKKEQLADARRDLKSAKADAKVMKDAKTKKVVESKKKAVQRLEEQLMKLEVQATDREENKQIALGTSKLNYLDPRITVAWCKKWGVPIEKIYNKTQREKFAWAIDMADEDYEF
Put plainly: Topoisomerase I-DNA complexes in LS513 cells. The format is cell-based. Conditions: factor 25%, 50 μM irinotecan. On the procedure: Three different concentrations of DNA (recovered from the DNA peak fractions of each CsCI gradient) were spotted onto the membrane.
The blot was placed on a phosphorimager and signal strengths from the 2 μg slots were quantified. Based upon comparison to a known standard of purified topoisomerase I on the same blot, the signals are expressed as ng or topoisomerase I per ml of DNA=no additions (i.e., untreated). The data are quantified in Table 22 and FIG. 35.

In another test the test system is SW480 cells. Put plainly: Proliferation assay (MTS), SW480. As to conditions: Table 13; supernatant 25% v/v; IFN-γ, TNF-α 1,000 U/ml; antibodies 10 μg/ml. The format is cell-based, human. On the procedure: as §1, with “Unstimulated and stimulated supernatants, as well as the expansion media, were added at a range of volumes to SW480, LS174T, or Jurkat cells or cultured in their maintenance media in 24-well plates for 96 hours. MTS” for “MTS”

For test [9], the target named is soluble Fas ligand (sFasL) in supernatants of anti-CD3/IL-2 activated-expanded T cells (human) (UniProt P48023). Nature of the test: cell-based or functional assay.
Chain of soluble Fas ligand (sFasL) in supernatants of anti-CD3/IL-2 activated-expanded T cells (human) (P48023 130-281 limits assumed): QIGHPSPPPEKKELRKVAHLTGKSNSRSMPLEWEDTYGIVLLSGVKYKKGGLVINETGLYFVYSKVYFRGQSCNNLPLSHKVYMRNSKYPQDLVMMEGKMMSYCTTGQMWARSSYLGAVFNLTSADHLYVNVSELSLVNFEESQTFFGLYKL

In the case of `CC[C@@]1(O)C(=O)OCc2c1cc1n(c2=O)Cc2cc3c(CN(C)C)c(O)ccc3nc2-1` [TPT, Topotecan], the inhibition at 1 µg/mL in the test with LS513 cells was 51%.

With `CC/C(=C(\c1ccccc1)c1ccc(OCCN(C)C)cc1)c1ccccc1` [Tamoxifen], the inhibition at 10 µg/mL was determined as 32% in the test with SKBR3 cells (SK-BR-3, Table 28, blocking antibody 50 μg/ml) and 44.5% in the test on SKBR3 cells (SK-BR-3, Table 29). Also, the F1 in the test with SKBR3 cells (Table 27, SKBR3 cells) amounted to 0.28. Further, the CD95 in [1] (Table 27, SKBR3 cells) is on record as 11. For the same molecule, the “CD 95 Cells” value in test [1] (Table 29, SKBR3, CD95 mean cell fluorescence, Factor C 5% v/v) worked out at 1.8. Moreover, the Caspase-3 in the test on caspase-3 [2] worked out at 0.12. The same molecule registered a Caspase-8 in the test with caspase-8 [3] of 0.01.

As to `CCc1c2c(nc3ccc(OC(=O)N4CCC(N5CCCCC5)CC4)cc13)-c1cc3c(c(=O)n1C2)COC(=O)[C@]3(O)CC` [CPT, Irinotecan HCl], the CD95 in [4] and in [5] was 13 throughout. The Caspase-3 in the test with caspase-3 [6] (LS513 Cells) and in the test with caspase-3 [6] (SW480 Cells) was 0.12 in each case. Besides, the Caspase-8 in the test with caspase-8 [7] (LS513 Cells) and in the test on caspase-8 [7] (SW480 Cells) was 0.11 each time. For the same molecule, the results for the “topoisomerase I-DNA complexes signal” value in test [8] (Time 1 hrs), in test [8] (Time 12 hrs) and in test [8] (Time 48 hrs) were 3.93 ng or topoisomerase I per ml of DNA, 4.83 ng or topoisomerase I per ml of DNA and 5.37 ng or topoisomerase I per ml of DNA, respectively.

B1: IFN: human recombinant IFN-γ (protein, UniProt P01579 24-161, looked up)
Interferon gamma: QDPYVKEAENLKKYFNAGHSDVADNGTLFLGILKNWKEESDRKIMQSQIVSFYFKLFKNFKDDQSIQKSVETIKEDMNVKFFNSNKKKRDDFEKLTNYSVTDLNVQRKAIHELIQVMAELSPAAKTGKRKRSQMLFRG
For B1, in the test with SW480 cells, the “Fractional Inhibition - Run 1” value came out at 0.01 and the “Fractional Inhibition - Run 2” value is recorded as 0.011.

B2: anti-FasL antibody NOK1 (antibody, from another filing, V domains shown)
VH: VQLQESGPELVKPGASVKISCKASGYAFSSSWMNWVKQRPGKGLEWIGRIYPGDGDTNDNGKFKGKATLTADKSSSTAYMQLSSLTSEDSAVYFCARSYYYDGSPWFTYWGQGTTVTVSS
VL: DIQMTQSPSSLSASLGDRVTISCRASQDISNYLNWYQQKPDGTVKLLIYYTSRLHSGVPSRFSGSGSGTDYSLTISNLEPEDIATYFCQQYSEFPWTFGGGTKLEIKR
For B2, in test [9], the Fractional Inhibition - Run 1, Supernatant + anti-FasL (supernatant alone 0.36) turned out to be 0.15; the Fractional Inhibition - Run 2, Supernatant + anti-FasL (supernatant alone 0.41) stood at 0.21; the Fractional Inhibition, Sup + TPT + anti-FasL on LS513 cells (Sup + TPT alone 0.84) turned out to be 0.69.
